Values after ≈ are worked out from the molar mass of the structure shown. Like-named read-outs stand apart in the source and are kept apart here.
Key:
[1] = In vivo plasma PK after intravenous dosing; settings: mice; for half-life: female, CD-1, mouse, plasma, iv, T1/2 (i.v)
in vivo [2] = settings: female, CD-1, mouse, po
[3] = In vivo lung PK after oral dosing; settings: female, CD-1, mouse
in vitro [4] = settings: mouse, plasma
[5] = Cytotoxicity against THP1 macrophage cell lines; format: cell-based; settings: human
in vitro [6] = settings: human, Caco-2
[7] = female, CD-1, mouse, in vivo, po
Mtb H37Rv = assay: In vivo mouse efficacy, established murine TB model; set-up: species or system Balb/c mice; settings: 100 mg/kg oral daily for 4 weeks; for Mean log lung CFU ± SEM / log reduction at 100 mg/kg: 5 animals; for Efficacy compared with PA-824, in words: significance at P<0.05; for log reduction at 100 mg/kg: Mycobacterium tuberculosis, H37RV, po, 672 h, read-out: Mean log lung CFU reduction ± SEM compared to untreated controls
Procedure: In vivo mouse efficacy studies were determined after intranasal infection of Balb/c mice with 10^3 cfu Mtb H37Rv. Treatment was initiated 4 weeks after infection. Compounds were orally administered in CM-2 formulation for 4 weeks daily. Bacterial loads were determined at 2 and 4 weeks post treatment. Statistical analysis was done by a one-way analysis of variance, followed by a multiple comparison analysis of variance by a one-way Tukey test (GraphPad Prism, version 5.02, San Diago, California USA, www.graphpad.com). Differences were considered statistically significant at the 95% level of confidence.

[8] = test system: M. tuberculosis (Mtb) (H37Rv, ATCC 27294); assay: microbe, parasite or virus in culture; format: cell-based; settings: Mycobacterium tuberculosis
in vivo [9] = settings: female, CD-1, mouse, po; remark: listed apart in the source
physchem [10] = settings: pH 6.8, aqueous buffer, thermodynamic from solid
physchem [11] = assay: physchem
in vivo [12] = settings: female, CD-1, mouse, iv; for clearance: i.v. CL
[13] = In vivo plasma PK after oral dosing in CM-2 formulation; settings: female, CD-1, mouse, plasma, po
[14] = 10 mg/kg, i.v. dosing at 10 mg/kg
[15] = 10 mg/kg, Lung to Plasma ratio AUC24
[16] = 10 mg/kg, Lung to Plasma ratio Cmax
[17] = 5 mg/kg, i.v. dosing at 5 mg/kg
[18] = 25 mg/kg, Lung to Plasma ratio AUC24
[19] = 25 mg/kg, Lung to Plasma ratio Cmax

| Structure (SMILES) | half-life [1, 14] | Kp (in vivo [2]; [15]) | Kp (in vivo [2]; [16]) | half-life ([3]; 10 mg/kg) | fraction unbound (in vitro [4]) | CC50 [5] | Papp A→B (in vitro [6]) | Papp B→A (in vitro [6]) | efflux ratio (in vitro [6]) | Lung AUC24 ([7]; 10 mg/kg) | Lung Cmax ([7]; 10 mg/kg) | Mean log lung CFU ± SEM (Mtb H37Rv) | Efficacy compared with PA-824, in words (Mtb H37Rv) | log reduction at 100 mg/kg (Mtb H37Rv) | MIC99 [8] | PAMPA %FA | PAMPA Log Pe | AUC (in vivo [9]; 10 mg/kg) | solubility (physchem [10]) | logP (physchem [11]) | further results |
| --- | --- | --- | --- | --- | --- | --- | --- | --- | --- | --- | --- | --- | --- | --- | --- | --- | --- | --- | --- | --- | --- |
| O=[N+]([O-])c1cn2c(n1)OC[C@@H](NCc1ccc(OC(F)(F)F)cc1)C2 [Amino-824, ((s)-2-nitro-6,7-dihydro-5H-imidazo[2,1-b][1,3]oxazin-6-yl)-(4-trifluoromethoxybenzyl)amine] | 120 min | 0.8 | 0.8 | 78 min | 0.2 | > 10 µg/mL | 35.4 ×10⁻⁶ cm/s | 21 ×10⁻⁶ cm/s | 0.6 | 4.5 µg·h/g | 1.4 µg/g | 5.14±0.08 log CFU | significantly (P<0.05) less efficacious than PA-824 | 1.08 ± 0.08 | 0.14 µg/mL (≈ 0.391 µM) | 91% | –4.8 cm/sec | 6000 ng·h/mL | 127 µg/mL (≈ 354 µM) | 2.5 | Cmax (in vivo [9]; 10 mg/kg): 1700 ng/mL; bioavailability (in vivo [9]; 10 mg/kg): 74%; Vd (in vivo [12]; 10 mg/kg): 2.3 L/kg; clearance (in vivo [12]; 10 mg/kg): 20.5 mL/min/kg; half-life ([13]; 10 mg/kg): 120 min |
| O=[N+]([O-])c1cn2c(n1)OC[C@@H](NCCc1ccc(OC(F)(F)F)cc1)C2 [AminoEthyl-824] | < 60 min | 1.8 | 1.6 | 72 min | 0.55 | > 10 µg/mL | 18.6 ×10⁻⁶ cm/s | 20.7 ×10⁻⁶ cm/s | 1.1 | 5.2 µg·h/g | 1.6 µg/g | 4.53±0.07 log CFU | comparable efficacy to PA-824 | 1.69 ± 0.07 | 0.06 µg/mL (≈ 0.161 µM) | 85% | –4.6 cm/sec | 2900 ng·h/mL | 104 µg/mL (≈ 279 µM) | 3.6 | T1/2 (i.v) ([1]; i.v. dosing at 10 mg/kg, 10 mg/kg): 42 min; Cmax (in vivo [9]; 10 mg/kg): 1000 ng/mL; bioavailability (in vivo [9]; 10 mg/kg): 76%; Vd (in vivo [12]; 10 mg/kg): 2 L/kg; clearance (in vivo [12]; 10 mg/kg): 44 mL/min/kg; half-life ([13]; 10 mg/kg): 102 min |
| CC[C@@H]1Oc2nc([N+](=O)[O-])cn2C[C@@H]1OCc1ccc(OC(F)(F)F)cc1 [NI-145] | – | – | – | – | – | > 10 µg/mL | – | – | – | – | – | – | – | – | 0.06 µg/mL (≈ 0.155 µM) | 99% | –3.85 cm/sec | – | < 2 µg/mL | 3.85 | half-life [1, 17]: 120 min; Tmax (in vivo [2]; 25 mg/kg): 2 h; Kp (in vivo [2]; [18]): 2.1; Kp (in vivo [2]; [19]): 2.3; half-life ([3]; 25 mg/kg): 246 min; Lung AUC24 ([7]; 25 mg/kg): 34.6 µg·h/g; Lung Cmax ([7]; 25 mg/kg): 4.2 µg/g; AUC (in vivo [9]; 25 mg/kg): 16200 ng·h/mL; Cmax (in vivo [9]; 25 mg/kg): 1800 ng/mL; Tmax (in vivo [9]; 25 mg/kg): 2 h; bioavailability (in vivo [9]; 25 mg/kg): 68%; Vd (in vivo [12]; 5 mg/kg): 1.7 L/kg; clearance (in vivo [12]; 5 mg/kg): 17 mL/min/kg; half-life ([13]; 25 mg/kg): 252 min |
| CC[C@@H]1Oc2nc([N+](=O)[O-])cn2C[C@@H]1NCc1ccc(OC(F)(F)F)c(F)c1 [NI-176] | – | – | – | – | – | > 10 µg/mL | – | – | – | – | – | – | – | – | 0.03 µg/mL (≈ 0.0742 µM) | 99% | –3.7 cm/sec | – | 8 µg/mL (≈ 19.8 µM) | 3.5 | half-life [1, 17]: 60 min; Kp (in vivo [2]; [18]): 2.2; Kp (in vivo [2]; [19]): 2.2; half-life ([3]; 25 mg/kg): 258 min; Lung AUC24 ([7]; 25 mg/kg): 30.3 µg·h/g; Lung Cmax ([7]; 25 mg/kg): 4.8 µg/g; AUC (in vivo [9]; 25 mg/kg): 13700 ng·h/mL; Cmax (in vivo [9]; 25 mg/kg): 2200 ng/mL; bioavailability (in vivo [9]; 25 mg/kg): 86%; Vd (in vivo [12]; 5 mg/kg): 1.8 L/kg; clearance (in vivo [12]; 5 mg/kg): 22.2 mL/min/kg; half-life ([13]; 25 mg/kg): 258 min |
